Source: patent US11311541B2 (priority 2014, dated 2022)
“Also recorded” adds a separate entry of the source. Where two headings read alike, the source gives them in different places. One block for each compound: values may come before it.

Assays:
ROCK1 = ROCK1 (Homo sapiens (Human), UniProt Q13464); type: biochemical
From the text: (§2) Dose response curves for Rho-kinase inhibition were derived from a Invitrogen Z′-LYTE™ Kinase Assay Kit (Invitrogen catalog number PV3793). Purified active ROCK1 and ROCK2 were obtained from Invitrogen (catalog numbers ROCK1, PV3691 and ROCK2, PV3759). The kit components include a coumarin and fluorescein labeled peptide based on myosin light chain 2 ([sequence]), a proprietary protease containing development reagent and a proprietary Stop buffer used to terminate the development reaction. The inhibitory activities of compounds are measured according to the manufactures protocol. […] This mixture is overlayed into a white 96-well half area plate and the reaction is initiated with the addition of 5 uM ATP for ROCK1 or 12 uM ATP for ROCK2. The assay proceeds at room temperature for 1 hour followed by the addition of development reagent, and further incubation for 1 hour at room temperature. STOP reagent is then added and the reaction and immediately the coumarin and fluorescein emission signals are read on a Tecan Infinite M1000 fluorescence plate reader (excitation: 400 nm; emission 445 and 520 nm, respectively). By comparing the emission ratios of the test samples against control samples, percent phosphorylation values are calculated and the concentration of inhibitor that produces ½ inhibition of kinase activity (IC50) is determined using Prism.

ROCK2 [1] = target: T1, ROCK2 (Homo sapiens (Human), UniProt O75116); details: read-out: ROCK2 IC50
From the text: as §2

cytokine secretion = assay: cytokine secretion, FIG. 10; type: cell-based
ROCK2 [2] = target: T1, ROCK2; assay: biochemical
From the text: as §2

CD4+ human T cells [3] = assay: cytokine secretion of anti-CD3/CD28 stimulated CD4+ T cells in vitro; type: cell-based; details: anti-CD3/CD28 stimulation
From the text: (§1) Activation of resting T cells, resulting in cytokine secretion and proliferation, involves two distinct signals from antigen-presenting cells (APCs), mimicked by co-stimulation of the T cell receptor (TCR)/CD3 complex and the CD28 receptor.

CD4+ human T cells [4] = assay: T cell proliferation in response to TCR stimulation in vitro; type: cell-based
From the text: as §1

STAT3 phosphorylation = STAT3 phosphorylation in T cells; type: cell-based, human
Protocol: STAT3 plays a critical role in Th17 differentiation via regulation of RORγt expression and direct binding to the IL-17 and IL-21 promoters. […] In a different experiment, cells were cultured under Th17-skewing conditions for 5 days and then treated with the ROCK2 selective inhibitor for 3 hours.

[5] = tested on: CD4+ T cells from RA patients; assay: cytokine secretion ex vivo in CD4+ T cells from RA patients; type: cell-based, human
From the text: Among RA patients, inhibition of IFN-γ production was correlated with disease activity score (DAS). (FIG. 12B).

human CD4+ T cells = assay: Foxp3+ cells among CD4+ T cells; type: cell-based; details: 5 days of Th17 skewing activation
From the text: Foxp3 is a lineage-specific transcription factor for Tregs and is crucial to the development and inhibitory function of these cells. STAT5 signaling positively regulates the induction and stabilization of Foxp3 expression in T cells in vitro and in vivo. […] (FIG. 14).

CD4+CD25+ human Tregs = assay: Treg inhibition of IL-17 secretion in CD4+CD25- T cells; type: cell-based; details: Tregs treated 3 hours; Treg:Teff 1:4 and 1:9
[6] = tested on: TGF-β-induced STAT3, MLC and SMAD2/3 phosphorylation; assay: TGF-β-induced phosphorylation in Tregs; type: cell-based
From the text: (FIG. 16). TGF-3 is involved in development and function of both Th17 and Treg subsets of T cells. However, when Tregs are regulated in Smad2/3-dependent signaling mechanism, TGF-β regulates Th17 cells in Smad2/3 independent manner that is considered as non-canonical TGF-β-induced signaling.

[7] = tested on: PBMCs of treated patients; assay: ex vivo stimulation of cytokine production in PBMCs isolated from treated patients; design: species or system human; details: 120 mg/day, days 1 and 8-14; anti-CD3/CD28 72 hours
Protocol: Peripheral blood mononuclear cells (PBMCs) were collected at the start and end of the trial and stimulated by plating on immobilized anti-CD3/CD28 antibodies for 72 hours, and levels of IL-17, IL-21, and IFN-γ were measured. […] No effect on IFN-γ was observed.

[8] = tested on: murine model of chronic GVHD; assay: germinal centers and Tfh cells in spleen, murine model of chronic GVHD; type: in vivo, mouse; details: 150 mg/kg
Protocol: Fixed 6-μm spleen cryosections of mice were stained with rhodamine-conjugated peanut agglutinin (PNA; Vector Laboratories), and the size of the PNA-positive sections was measured and defined as germinal centers. For flow cytometric analysis of Tfh cells and GC B cells, single-cell suspensions from spleens were obtained and labeled with anti-CD4, anti-CXCR5, and anti-PD1 antibodies (eBioscience). Cells were analyzed on a BD LSRFortessa cell analyzer.

[9] = tested on: STAT3/STAT5 phosphorylation, RORγt, IRF4, Bcl6 in spleens; assay: Western blot of spleen cells, murine model of cGVHD; type: in vivo, mouse; details: treatment days 28-56
Protocol: Mice were treated as described above, except that twelve animals per group were tested. […] (n=3/group). Spleens were also collected for analysis on day 56. […] Single cell suspensions were prepared from the isolated spleens. Cells were lysed in RIPA buffer and analyzed for protein content. Sample buffer was then added, and, after boiling, the samples, containing equal amounts of proteins, were separated by SDS-PAGE gel electrophoresis and transferred to a nitrocellulose membrane. Membranes were blocked and probed with specific antibodies overnight. Actin was used as a loading control. Anti-pSTAT3 pSTAT5 and Bcl6 antibodies were purchased from Cell Signaling Technologies (Beverly, Mass.). Anti-IRF4 (sc-48338) and anti-RORγt (14-6988) were obtained from Santa Cruz Biotechnology Inc. and eBioscience respectively. Immunoreactive protein bands were visualized using an HRP-conjugated secondary antibodies and an enhanced ECL system.

[10] = plasma KD025 concentration in murine chronic GVHD; type: in vivo, mouse; details: day 56, 1-hr pre-dose and 1-hr post-dose
Protocol: Mice were treated as described above, except that twelve animals per group were tested. […] (n=3/group).

[11] = tested on: sclerodermatous cGVHD mouse model; assay: sclerodermatous cGVHD mouse model (B10.D2 into BALB/c); type: in vivo
From the text: In this model, BALB/c (H-2^d) mice received 775 cGy of total body radiation on day 0 and were transplanted with bone marrow and T-cells from B10.D2 (H-2^d) mice. […] The GVHD score in this model combined changes in weight lost, posture, activity, fur texture, and skin integrity (FIG. 26). Sclerodermatous cGVHD mice were further analyzed as depicted in FIGS. 27-35.

[12] = tested on: murine model of chronic GVHD; assay: murine model of chronic GVHD, lung pathology
Protocol: On day −1, recipients received total-body irradiation (TBI) by X-ray (8.5 Gy). Donor bone marrow (BM) was T-cell depleted with anti-Thy 1.2 mAb followed by rabbit complement. On day 0, recipients received 10^7 BM cells with or without allogeneic splenocytes (10^6 cells). Weights of individual mice were recorded twice weekly. […] The analysis of pulmonary function was performed on day 28 (before the treatment) and on day 56. Anesthetized mice were weighed, and lung function was assessed by wholebody plethysmography with the Flexivent system (SCIREQ) and analyzed with Flexivent Version 5.1 software. Survival data were analyzed by life-table methods, and actuarial survival rates are shown. Group comparisons were made by log-rank test.
Lungs were inflated by infusion of 1 mL of optimal cutting temperature compound:PBS (3:1) intratracheally prior to harvest. Six-micrometer cryosections were fixed for 5 minutes in acetone and stained with mMasson's trichrome staining kit (Sigma-Aldrich) for detection of collagen deposition. Collagen deposition was quantified on trichrome-stained sections as a ratio of area of blue staining to area of total staining by use of the Adobe mPhotoshop CS3 analysis tool (Adobe Systems). For measuring Ig deposition, acetone-fixed 6-m lung cryosections were blocked with horse serum and streptavidin-biotin blocking kit (Vector) and stained with fluorescein isothiocyanate (FITC)-labeled anti-mouse-Ig (BD Pharmingen). Antibody deposition was quantified by area of Ig staining per 100-μm section.
Mice were treated as described above, except that twelve animals per group were tested. […] (n=3/group). Spleens were also collected for analysis on day 56. […] Pulmonary function tests and analysis of body weight were performed as described above.

[13] = Table 3 (Example 203, method not given)
[14] = 2 RA patients, intracellular staining
[15] = RA patients, anti-CD3/CD28, ex vivo
[16] = day 98, 42 days after last administration

Chain of ROCK1 (Q13464 1-535): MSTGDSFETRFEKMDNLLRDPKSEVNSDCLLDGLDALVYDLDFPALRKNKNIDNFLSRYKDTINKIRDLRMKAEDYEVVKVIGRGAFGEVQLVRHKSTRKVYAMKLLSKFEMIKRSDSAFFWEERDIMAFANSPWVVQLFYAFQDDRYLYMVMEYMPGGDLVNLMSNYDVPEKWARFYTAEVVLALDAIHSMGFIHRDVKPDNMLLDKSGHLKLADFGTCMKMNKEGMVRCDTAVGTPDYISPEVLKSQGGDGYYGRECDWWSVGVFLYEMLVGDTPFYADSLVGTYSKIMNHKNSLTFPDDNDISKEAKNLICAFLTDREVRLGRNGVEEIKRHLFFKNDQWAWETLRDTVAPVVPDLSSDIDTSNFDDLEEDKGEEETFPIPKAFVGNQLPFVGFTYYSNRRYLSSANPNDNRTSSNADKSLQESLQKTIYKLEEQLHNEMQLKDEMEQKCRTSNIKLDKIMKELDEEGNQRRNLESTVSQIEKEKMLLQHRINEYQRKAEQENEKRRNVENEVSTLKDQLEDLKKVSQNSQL
T1 sequence (O75116 1-552): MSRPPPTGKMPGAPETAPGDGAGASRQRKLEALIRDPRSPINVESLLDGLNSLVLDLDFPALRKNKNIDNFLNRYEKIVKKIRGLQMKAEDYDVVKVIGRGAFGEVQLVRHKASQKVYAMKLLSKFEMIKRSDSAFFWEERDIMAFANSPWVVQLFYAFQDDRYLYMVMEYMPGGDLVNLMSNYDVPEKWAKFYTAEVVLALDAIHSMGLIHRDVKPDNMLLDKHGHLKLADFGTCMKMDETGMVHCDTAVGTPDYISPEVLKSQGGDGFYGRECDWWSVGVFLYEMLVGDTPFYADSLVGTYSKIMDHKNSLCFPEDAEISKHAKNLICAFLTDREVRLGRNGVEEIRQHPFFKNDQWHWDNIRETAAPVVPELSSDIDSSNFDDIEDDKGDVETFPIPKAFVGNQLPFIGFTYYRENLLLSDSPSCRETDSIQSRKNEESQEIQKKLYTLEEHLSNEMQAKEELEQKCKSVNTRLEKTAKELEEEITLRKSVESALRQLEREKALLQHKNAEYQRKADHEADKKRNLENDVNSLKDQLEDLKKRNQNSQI

SMILES: CC(N)c1cccc(-c2nccc(Nc3ccc4[nH]ncc4c3)n2)c1 (stereo not drawn) [Example 147, N-(2-(3-(1-aminoethyl)phenyl)pyrimidin-4-yl)-1H-indazol-5-amine]
IC50 (ROCK1; Table 2, 5 uM ATP): > 2 µM
IC50 (ROCK2 [1]; Table 2, 12 uM ATP): > 5.5 µM

SMILES: CC(C)NC(=O)COc1cccc(-c2nc(Nc3ccc4[nH]ncc4c3)cc(C(F)(F)F)n2)c1 [Example 169]
IC50 (ROCK1; Table 2, 5 uM ATP): > 10 µM
IC50 (ROCK2 [1]; Table 2, 12 uM ATP): > 10 µM

SMILES: COc1ccc2c(c1)CN(c1nccc(Nc3ccc4[nH]ncc4c3)n1)C2 [Example 181, N-(2-(5-methoxyisoindolin-2-yl)pyrimidin-4-yl)-1H-indazol-5-amine]
secretion of IL-21 (cytokine secretion; FIG. 10 Panel A): inhibits
inhibition of IL-17 secretion (cytokine secretion; FIG. 10 Panel B): dose-dependent

SMILES: c1ccc2c(c1)CN(c1nccc(Nc3ccc4[nH]ncc4c3)n1)C2 [Example 182, N-(2-(isoindolin-2-yl)pyrimidin-4-yl)-1H-indazol-5-amine]
IC50 (ROCK1; [13]): > 10 µM

SMILES: COc1ccc2c(c1)CN(c1ccnc(Nc3ccc4[nH]ncc4c3)n1)C2 [Example 188, N-(4-(5-methoxyisoindolin-2-yl)pyrimidin-2-yl)-1H-indazol-5-amine]
IC50 (ROCK1; [13]): > 10 µM

SMILES: Clc1ccc2c(c1)CN(c1nccc(Nc3ccc4[nH]ncc4c3)n1)C2 [Example 190, N-(2-(5-chloroisoindolin-2-yl)pyrimidin-4-yl)-1H-indazol-5-amine]
IC50 (ROCK1; [13]): > 10 µM

SMILES: COc1ccc2c(c1)CCN(c1nccc(Nc3ccc4[nH]ncc4c3)n1)C2 [Example 191, N-(2-(6-methoxy-3,4-dihydroisoquinolin-2(1H)-yl)pyrimidin-4-yl)-1H-indazol-5-amine]
IC50 (ROCK1; [13]): > 10 µM

SMILES: c1cc(Nc2ccc3[nH]ncc3c2)nc(N2CCc3sccc3C2)n1 [Example 192, N-(2-(6,7-dihydrothieno[3,2-c]pyridin-5(4H)-yl)pyrimidin-4-yl)-1H-indazol-5-amine]
IC50 (ROCK1; [13]): > 10 µM

SMILES: CC(C)NC(=O)COc1cccc(-c2nc(Nc3ccc4[nH]ncc4c3)c3ccccc3n2)c1 [KD025]
IFN-γ secretion (CD4+ human T cells [3]): less robust and significant only at high dose (10 μM)
IL-2 secretion (CD4+ human T cells [3]): observed only at the highest concentration (10 μM)
IL-17 secretion (CD4+ human T cells [3]): significantly inhibited
IL-21 secretion (CD4+ human T cells [3]): significantly inhibited
proliferation in response to TCR stimulation (CD4+ human T cells [4]): down-regulated their ability to proliferate
phosphorylation of IFR4 and RORγT (STAT3 phosphorylation; separate experiment, FIG. 11C): reduced phosphorylation
phosphorylation of STAT3 (STAT3 phosphorylation; two designs: pre-treatment then anti-CD3/CD28, Th17-skewing 5 days then 3 hours treatment): significantly down-regulates
frequency of IFN-γ-producing cells [5, 14]: significantly reduced the frequencies
frequency of IL-17-producing cells [5, 14]: significantly reduced the frequencies
IFN-γ secretion [5, 15]: significantly down-regulated
IL-17 secretion [5, 15]: significantly down-regulated
IL-21 secretion [5, 15]: significantly down-regulated
percentage of Foxp3+ cells (human CD4+ T cells): significantly increased
ability of Tregs to suppress IL-17 secretion in CD4+CD25- effector T cells (CD4+CD25+ human Tregs): significantly increased
TGF-β-induced MLC phosphorylation [6]: down-regulates
TGF-β-induced STAT3 phosphorylation [6]: down-regulates
phosphorylation of SMAD2/3 [6]: remains intact
induction of IL-17 secretion in PBMCs [7]: significantly inhibited in PBMCs isolated from four of five patients
induction of IL-21 secretion in PBMCs [7]: significantly inhibited in PBMCs from all five patients
numbers of CD4+PD1HiCXCR5 Tfh cells in spleen [8]: reversed
numbers of germinal centers in spleen [8]: reversed
STAT3 phosphorylation in spleens [9]: significant reduction
STAT5 phosphorylation in spleens [9]: concurrent increase
protein levels of RORγt, IRF4 and Bcl6 in spleenocytes [9]: dose-dependent decrease
plasma KD025 concentrations [10]: measurable and generally dose dependent
cervical LN T Cell IFNg ([11]; FIG. 32): decreased
development of chronic sclerodermatous cGVHD ([11]; i.p. once daily days 19-47): blocked the development
GVHD score ([11]; i.p. once daily days 19-47, weight lost, posture, activity, fur texture, skin integrity): significantly decreased
pulmonary function (resistance, elastance, compliance) ([12]; 100 mg/kg i.p. daily from day 28, tested day 56): significantly improved and normalized pulmonary function
antibody deposition in lungs ([12]; 150 mg/kg): essentially indistinguishable from samples from uninduced mice
collagen deposition in lungs ([12]; 150 mg/kg): essentially indistinguishable from samples from uninduced mice
effect on cGVHD lung pathology, dose dependence ([12]; 30, 100, 150 mg/kg): dose dependent
body weight ([12]; Example 216, FIG. 23): no effect
survival rates ([12]; FIG. 18): no effect
body weight ([12]; FIG. 18, 19): no effect
lung resistance [12, 16]: dose-dependent decrease
respiratory function [12, 16]: long-lasting improvement; also recorded: Partial improvement

Second part, the compound after the results:

IC50 (ROCK1; [13]): > 10 µM
SMILES: COc1ccc2c(c1)CN(c1cc(Nc3ccc4[nH]ncc4c3)ncn1)C2 [Example 193, N-(6-(5-methoxyisoindolin-2-yl)pyrimidin-4-yl)-1H-indazol-5-amine]

IC50 (ROCK1; [13]): > 10 µM
IC50 (ROCK2 [2]): 0.13 to 0.18 µM
SMILES: COc1ccc2c(c1)CN(c1cc(Nc3ccc4[nH]ncc4c3)nc(C)n1)C2 [Example 194, N-(6-(5-methoxyisoindolin-2-yl)-2-methylpyrimidin-4-yl)-1H-indazol-5-amine]

IC50 (ROCK1; [13]): > 10 µM
SMILES: c1cc2c(cn1)CN(c1nccc(Nc3ccc4[nH]ncc4c3)n1)C2 [Example 195, N-(2-(1H-pyrrolo[3,4-c]pyridin-2(3H)-yl)pyrimidin-4-yl)-1H-indazol-5-amine]

IC50 (ROCK2 [1]; [13]): > 0.01 µM
SMILES: COc1ccc2c(c1)CN(c1nc(C)c(C)c(Nc3ccc4[nH]ncc4c3)n1)C2 [Example 196, N-(2-(5-methoxyisoindolin-2-yl)-5,6-dimethylpyrimidin-4-yl)-1H-indazol-5-amine]

IC50 (ROCK1; [13]): > 10 µM
SMILES: COc1ccc2c(c1)CN(c1nccc(Nc3ccc(-c4ccncc4)cc3)n1)C2 [Example 200, 2-(5-methoxyisoindolin-2-yl)-N-(4-(pyridin-4-yl)phenyl)pyrimidin-4-amine]
